The assay concerns the target Serine/threonine-protein kinase pim-1 (Homo sapiens, UniProt P11309). The experiment in a line: Biological Assay: Determination of the Pim kinase activity of a Formula I compound is possible by a number of direct and indirect detection methods. Certain exemplary compounds described herein were assayed for their Pim kinase binding activity, including isoforms Pim-1, Pim-2, andPim-3, (Example 901) and in vitro activity against tumor cells (Example 902). The format is cell-based.

Broadly, the Ki is the equilibrium dissociation constant of an inhibitor or competing ligand from its target. A low value points to a stronger hold on the target.

Sequence of Serine/threonine-protein kinase pim-1 (P11309 whole entry, canonical isoform): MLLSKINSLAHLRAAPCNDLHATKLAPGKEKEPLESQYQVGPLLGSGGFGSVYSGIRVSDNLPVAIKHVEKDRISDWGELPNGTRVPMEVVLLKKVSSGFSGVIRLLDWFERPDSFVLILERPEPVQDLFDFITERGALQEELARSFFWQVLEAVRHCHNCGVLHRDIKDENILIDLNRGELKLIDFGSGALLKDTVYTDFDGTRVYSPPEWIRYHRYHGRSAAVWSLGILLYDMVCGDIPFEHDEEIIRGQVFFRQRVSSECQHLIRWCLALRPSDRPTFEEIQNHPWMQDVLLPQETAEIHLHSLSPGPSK

Consider `N[C@@H]1CC[C@@H](c2c(NC(=O)c3csc(-c4c(F)cccc4F)n3)cnn2CC(F)F)OC[C@H]1F`, for which the affinity corresponds to a Ki of 0.047 nM.

(Values after ChEMBL document CHEMBL5727021, “Oxepan-2-yl-pyrazol-4-yl-heterocyclyl-carboxamide compounds and methods of use” (2018).)
